{
  "source": "patent US20250188091A1",
  "about": "“PYRIDONE COMPOUND HAVING INTEGRASE INHIBITORY ACTIVITY AND PHARMACEUTICAL USE THEREOF” (priority 2021, published 2025)",
  "format_in_all_cases": "cell-based",
  "key": {"[1]": {"tested_on": "human immunodeficiency virus type 1 IIIB strain (HIV-1IIIB)", "assay": "Cell protection assay against HIV infection (MT-4 cells, XTT)", "settings": "for CC50/EC50: MT-4 cells, HIV-1IIIB", "protocol": "The protective effect of the test compound on MT-4 cells infected by human immunodeficiency virus type 1 IIIB strain (HIV-1IIIB) at different concentrations was evaluated.\nThe test compound was dissolved in DMSO at a concentration of 10 mM and stored at −20° C.\n2) Test of the anti-HIV-1 IIIB infection activity of the compound: A starting concentration of 10 nM was used, and five serial five-fold dilutions were carried out on the compound. Each compound was present in the test medium at a concentration 2 folds of the final desired test concentration. 100 microliters (100 μL) of the solution of each concentration was added to triplicate wells for efficacy evaluation, and each concentration was added one well for colorimetric evaluation. AZT was purchased from Sigma Aldrich (St. Louis, MO, USA), and evaluated as a control compound in the antiviral assay.\n(§1) Cell culture: MT-4 cells were passaged in a T-75 flask before use in the antiviral assay. On the day before the assay, cells were passaged in aliquots at a 1:2 ratio to ensure that they were in the exponential growth phase at the time of infection. Total cells and viable cells were quantified using a hemocytometer and trypan blue dye. The proportion of viable cells used for the assay was greater than 95%. The cells were resuspended in tissue culture medium at 5×10^4 cells per milliliter, and the resulting suspension was added to a drug-containing microtiter plate in a volume of 50 μL.\nVirus preparation: The virus used for this assay was lymphotropic virus strain HIV-1IIIB. The viruses were amplified in CEM-SS cells for the preparation of virus stock solution. The pre-titered virus aliquot tube was taken from the refrigerator (−80° C.), and slowly thawed to room temperature in a biosafety cabinet. The viruses were diluted in the tissue culture medium. 50 μl of the diluted virus would produce 85% to 95% cell killing 6 days after infection. 50 μL of the diluted virus was added immediately to the microtiter plate containing cells and drugs.\n(§2) Evaluation of the efficacy and toxicity of the compound with XTT: After culturing for six days in a 37° C., 5% CO2 incubator, tetrazolium dye XTT (2,3-bis(2-methoxy-4-nitro-5-sulfophenyl)-5-[(phenylamino)carbonyl]-2H-tetrazolium hydroxide) was added to the cell culture plate to conduct the test. The XTT solution was a 1 mg/ml RPMI1640 stock solution prepared on the same day. Phenazine methyl sulfate (PMS) solution at a concentration of 0.15 mg/ml was prepared in PBS, and stored in the dark at −20° C. XTT/PMS stock solution was prepared before use by adding 40 μl of PMS per milliliter of XTT solution. […] of XTT/PMS was added to each well of the plate, and the plate was re-incubated for 4 hours at 37° C. The plate was sealed with adhesive plate sealant, and gently shaked or inverted several times to mix the soluble formazan product. The absorbance was read at 450/650 nm."}, "[2]": {"assay": "Test of cytotoxicity of the compound (MT-4 cells, XTT)", "settings": "human", "protocol": "(§3) 1) Test of cytotoxicity of the compound: The test compound was evaluated using a starting concentration of 100 nM and five serial half-log dilutions. Each compound was present in the test medium at a concentration 2 folds of the final desired test concentration. The compound was diluted to 1 mM in DMSO. The compound was then diluted to 200 nM in a drug dilution tube containing 998 μL of test medium (adding 2 μL of 1 mM stock). […] of the 200 nM solution was transferred into 680 μL of the test medium (half-log dilution), and a total of five serial dilutions were carried out. 100 microliters (100 μL) of the solution of each concentration was added to duplicate wells for cytotoxicity evaluation, and each concentration was added to one well for colorimetric evaluation.\nas §1, §2"}, "[3]": {"tested_on": "WT (wild type) pseudovirus", "assay": "Pseudovirus-based assay of anti-HIV-1 activity, WT strain", "settings": "HEK-293T, 72 h", "protocol": "(§4) The inhibitory activity against pseudoviruses containing common clinical mutation sites of HIV-1 integrase (G140S/Q148R, Q148R/N155H, E138K, Q148H, R263K and Y143R/Q148H) was determined.\n(§5) Preparation of pseudovirus: Using the lentiviral plasmid pNL4-3-Luc-RE (HedgehogBio) as the backbone, an integrase point mutation plasmid was constructed. HEK293T cells (ATCC) were seeded in a 6-well plate at 5×10^5 cells per well. After 24 hours, when the cell density reached 60% to 80%, transfection was performed. pNL4-3-Luc-R-E- or pNL4-3-Luc-R-E--IN-mutant plasmid and lentivirus packaging plasmid pMD2.G (Beijing Zoman Bio) were added to the transfection reagent in a certain proportion. Cell transfection was performed according to the instructions of transfection reagent PEI25K (Maokang Biotechnology). After 48 hours, the supernatant was collected, centrifuged at 3000 rpm for 5 minutes, filtered with a 0.45 μm microporous membrane, aliquoted, and stored at −80° C. for later use. In HEK293T cells, the pseudovirus titer was determined based on luciferase activity.\n(§6) Determination of antiviral activity of compounds: In a 96-well V-bottom plate, the compound to be tested was diluted with DMSO semi-logarithmically, and a compound solution 4 times the final concentration was prepared for later use. According to the results of different virus titrations, the virus was diluted with complete culture medium for later use. HEK293T cells were digested with trypsin to obtain a cell suspension of 2×10^5/mL. 50 µl of compound diluent, 50 µl of virus diluent and 100 µl of cell suspension were added successively to a 96-well flat-bottomed plate. The final concentration of the compound was 1000 nM to 0.1 nM. The 96-well plate was incubated in a 37° C., 5% CO2 incubator. After 72 hours, 100 µL of culture supernatant was pipetted out carefully from each well of the 96-well plate, 25 µL of Steady-Glo detection reagent (Promega, Cat #E2550) was added to each well in the dark, and then assayed on a machine (Tecan, Type #Spark)."}, "[4]": {"tested_on": "HIV-1 integrase E138K pseudovirus", "assay": "Pseudovirus-based assay of anti-HIV-1 activity, E138K strain", "settings": "HEK-293T, 72 h", "protocol": "as §4, §5, §6"}, "[5]": {"tested_on": "HIV-1 integrase Q148H pseudovirus", "assay": "Pseudovirus-based assay of anti-HIV-1 activity, Q148H strain", "settings": "HEK-293T, 72 h", "protocol": "as §4, §5, §6"}, "[6]": {"tested_on": "HIV-1 integrase R263K pseudovirus", "assay": "Pseudovirus-based assay of anti-HIV-1 activity, R263K strain", "settings": "HEK-293T, 72 h", "protocol": "as §4, §5, §6"}, "[7]": {"tested_on": "HIV-1 integrase Y143R/Q148H pseudovirus", "assay": "Pseudovirus-based assay of anti-HIV-1 activity, Y143R/Q148H strain", "settings": "HEK-293T, 72 h", "protocol": "as §4, §5, §6"}, "[8]": {"tested_on": "HIV-1 integrase G140S/Q148R pseudovirus", "assay": "Pseudovirus-based assay of anti-HIV-1 activity, G140S/Q148R strain", "settings": "HEK-293T, 72 h", "protocol": "as §4, §5, §6"}, "[9]": {"tested_on": "HIV-1 integrase Q148R/N155H pseudovirus", "assay": "Pseudovirus-based assay of anti-HIV-1 activity, Q148R/N155H strain", "settings": "HEK-293T, 72 h", "protocol": "as §4, §5, §6"}, "MT-4 cells": {"tested_on": "MT-4 cells", "assay": "Test of cytotoxicity of the compound (MT-4 cells, XTT)", "settings": "6 days", "protocol": "as §3, §1, §2"}, "[10]": {"tested_on": "HIV-1 subtype A RW/92/009", "assay": "Inhibitory activity against clinical HIV-1 strain RW/92/009 in PBMC", "settings": "RW/92/009, human PBMC, 7 days, reverse transcriptase activity in supernatant", "protocol": "(§7) Preparation of virus: Clinical HIV-1 virus strains (Table 3) were obtained from the US NIH AIDS Research and Reference Reagent Library. PBMC were extracted from three fresh blood samples that were HIV and HBV seronegative, mixed and cultured, and PHA-P (phytohemagglutinin) was added to stimulate activation. The cells and virus were incubated at 37° C./5% CO2, and the cell culture supernatant after infection was collected and stored frozen at −80° C. Each viral titer was titrated in pooled PBMCs from three donors.\n(§8) Assay of antiviral activity of compounds: Frozen PBMCs were resuspended in fresh culture medium (1×10^6 cells/mL), and added to a round-bottom 96-well plate ([…]). 100 μl of culture medium containing 2 times the final concentration of the compound was added to each well, and then 50 μL of virus solution was added (the final infection dose was MOI=0.002). After 7 days of culture, the reverse transcriptase activity in the supernatant was determined to evaluate HIV-1 replication. At the same time, a 96-well culture plate with only compounds and cells was prepared for the assay of compound cytotoxicity."}, "[11]": {"tested_on": "HIV-1 subtype C MW/93/959", "assay": "Inhibitory activity against clinical HIV-1 strain MW/93/959 in PBMC", "settings": "MW/93/959, human PBMC, 7 days, reverse transcriptase activity in supernatant", "protocol": "as §7, §8"}, "[12]": {"tested_on": "HIV-1 subtype D UG/92/001", "assay": "Inhibitory activity against clinical HIV-1 strain UG/92/001 in PBMC", "settings": "UG/92/001, human PBMC, 7 days, reverse transcriptase activity in supernatant", "protocol": "as §7, §8"}},
  "note": "Read-outs that look alike come from different tables or passages of the source.",
  "data": [
    {"compound": "O=C(NCc1ccc(F)cc1F)c1cn2c(c(O)c1=O)C(=O)N1[C@@H](C3CC3)CO[C@@H]1C2", "note": "[Compound 1]", "values": [
      {"measurement": "EC50", "setting": "[1]; Human immunodeficiency virus 1, IIIB, MT4, 144 h", "value": 3.12, "unit": "nM"},
      {"measurement": "CC50/EC50", "setting": "[1]", "value": ">32.1"},
      {"measurement": "CC50 at 6 days", "setting": "[2]", "value": "> 100", "unit": "nM"},
      {"measurement": "EC50", "setting": "[3]", "value": 3.3, "unit": "nM"},
      {"measurement": "EC90", "setting": "[3]", "value": 29.1, "unit": "nM"},
      {"measurement": "EC50", "setting": "[4]", "value": 5.1, "unit": "nM"},
      {"measurement": "EC90", "setting": "[4]", "value": 27.1, "unit": "nM"},
      {"measurement": "EC50", "setting": "[5]", "value": 15.9, "unit": "nM"},
      {"measurement": "EC90", "setting": "[5]", "value": 105, "unit": "nM"},
      {"measurement": "EC50", "setting": "[6]", "value": 6.5, "unit": "nM"},
      {"measurement": "EC90", "setting": "[6]", "value": 58.3, "unit": "nM"},
      {"measurement": "EC50", "setting": "[7]", "value": 21.3, "unit": "nM"},
      {"measurement": "EC90", "setting": "[7]", "value": 193, "unit": "nM"},
      {"measurement": "EC50", "setting": "[8]", "value": 244, "unit": "nM"},
      {"measurement": "EC90", "setting": "[8]", "value": "> 1000", "unit": "nM"},
      {"measurement": "EC50", "setting": "[9]", "value": 611, "unit": "nM"},
      {"measurement": "EC90", "setting": "[9]", "value": "> 1000", "unit": "nM"}
    ]},
    {"compound": "Cc1cn([C@H]2C[C@H](N=[N+]=[N-])[C@@H](CO)O2)c(=O)[nH]c1=O", "note": "[AZT]", "values": [
      {"measurement": "EC50", "setting": "[1]; MT-4 cells infected by HIV-1IIIB, 6 days, XTT, read-out: EC50", "value": 2, "unit": "nM"},
      {"measurement": "CC50/EC50", "setting": "[1]", "value": ">250"},
      {"measurement": "CC50", "setting": "MT-4 cells", "value": "> 500", "unit": "nM"},
      {"measurement": "EC50", "setting": "[10]; read-out: hPBMC/HIV-1 EC50", "value": 3.58, "unit": "nM"},
      {"measurement": "EC90", "setting": "[10]; read-out: hPBMC/HIV-1 EC90", "value": 75.5, "unit": "nM"},
      {"measurement": "EC50", "setting": "[11]; read-out: hPBMC/HIV-1 EC50", "value": 0.31, "unit": "nM"},
      {"measurement": "EC90", "setting": "[11]; read-out: hPBMC/HIV-1 EC90", "value": 38.6, "unit": "nM"},
      {"measurement": "EC50", "setting": "[12]; read-out: hPBMC/HIV-1 EC50", "value": 4.02, "unit": "nM"},
      {"measurement": "EC90", "setting": "[12]; read-out: hPBMC/HIV-1 EC90", "value": 62, "unit": "nM"}
    ]}
  ]
}
